Measurements: patent US8133849B2, “Herbicidal compounds” (Syngenta Limited, priority 2007, dated 2012)

How the values were obtained:
Assay in all cases: Example B2 herbicidal action, post-emergence, pots in glasshouse, damage score 0-10
Format in all cases: in vivo
Conditions in all cases: application post-emergence, rate 1000 g/ha, evaluated after 13 days
[1] = test system: Amaranthus retroflexus
Summary of the method: (§1)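 Pot-grown plants were sprayed post-emergence at 8 days with active ingredient in aqueous spray derived from acetone/water (50:50) containing 0.5% Tween 20. Glasshouse conditions were 24/16° C day/night, 14 h light and 65% humidity, with watering twice daily. Damage was scored 13 days after spraying.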

[2] = test system: Echinochloa crus-galli
Summary of the method: as §1

[3] = test system: Ipomea hederaceae
Summary of the method: as §1

[4] = test system: Setaria faberi
Summary of the method: as §1

[5] = test system: Solanum nigrum
Summary of the method: as §1

Compound	AMARE damage score (10=total damage to plant; 0=no damage to plant) [1]	ECHCG damage score (10=total damage to plant; 0=no damage to plant) [2]	IPOHE damage score (10=total damage to plant; 0=no damage to plant) [3]	SETFA damage score (10=total damage to plant; 0=no damage to plant) [4]	SOLNI damage score (10=total damage to plant; 0=no damage to plant) [5]
CCN1c2nccnc2C(O)=C(c2c(Cl)cccc2C(F)(F)F)S1(=O)=O [Compound D6]	10	7	9	5	10
CCSC(=O)OC1=C(c2c(Cl)ccc(Cl)c2Cl)S(=O)(=O)N(CC(F)F)c2nccnc21 [Compound C37]	8	8	9	6	9
C=CCN1c2nccnc2C(OC(=O)SCC)=C(c2cc(Cl)ccc2C(F)(F)F)S1(=O)=O [Compound C119]	3	5	3	3	6
Cc1ccc(C(F)(F)F)c(C2=C(O)c3nccnc3N(CC(F)F)S2(=O)=O)c1 [Compound D41]	9	1	9	2	10
O=S1(=O)C(c2ccccc2I)=C(O)c2nccnc2N1CC(F)F [Compound D44]	10	9	10	6	10
CC(C)(C)C(=O)OC1=C(c2c(Cl)ccc(Cl)c2C(F)(F)F)S(=O)(=O)N(CC(F)F)c2nccnc21 [Compound C52]	9	7	10	8	8
O=S1(=O)C(c2ccccc2C(F)(F)F)=C(O)c2nccnc2N1CC(F)F [Compound D31]	10	9	10	9	10
O=S1(=O)C(c2ccc(Cl)cc2Cl)=C(OCC(F)(F)F)c2nccnc2N1CC(F)(F)F [Compound C106, 3-(2,4-dichloro-phenyl)-4-(2,2,2-trifluoro-ethoxy)-1-(2,2,2-trifluoro-ethyl)-1H-2-thia-1,5,8-triaza-naphthalene 2,2-dioxide]	6	1	3	0	7
CC(C)C(=O)OC1=C(c2cc(C(F)(F)F)ccc2Cl)S(=O)(=O)N(CC(Cl)Cl)c2nccnc21 [Compound C115]	8	1	6	5	9
O=S1(=O)C(c2c(Br)cccc2Br)=C(O)c2nccnc2N1CC(F)F [Compound D28]	10	8	8	8	9
O=S1(=O)C(c2ccc(C(F)(F)F)cc2C(F)(F)F)=C(O)c2nccnc2N1CC(F)F [Compound D55]	10	5	10	4	10
CCN1c2nccnc2C(OC(=O)C(C)(C)C)=C(c2cc(F)c(Cl)cc2Cl)S1(=O)=O [Compound C45]	0	4	9	1	7
O=[N+]([O-])c1ccccc1C1=C(O)c2nccnc2N(CC(F)F)S1(=O)=O [Compound D32]	5	0	5	1	6
CC(C)(C)C(=O)OC1=C(c2ccccc2C(F)(F)F)S(=O)(=O)N(CC(F)F)c2nccnc21 [Compound C62]	7	4	8	6	6
CCN1c2nccnc2C(OC(=O)C(C)C)=C(c2c(Cl)ccc(Cl)c2C(F)(F)F)S1(=O)=O [Compound C50]	5	5	7	4	6
CCSC(=O)OC1=C(c2c(Cl)ccc(Cl)c2C(F)(F)F)S(=O)(=O)N(CC(F)F)c2nccnc21 [Compound C103]	8	7	6	6	9
CCN1c2nccnc2C(O)=C(c2cc(F)c(Cl)cc2Cl)S1(=O)=O [Compound D23]	8	2	9	2	8
CCN1c2nccnc2C(O)=C(c2cc(C(F)(F)F)ccc2Br)S1(=O)=O [Compound D35]	8	1	10	4	9
Cc1ccc(C2=C(OC(=O)C(C)C)c3nccnc3N(CC(F)F)S2(=O)=O)c(Cl)c1 [Compound C136, isobutyric acid 3-(2-chloro-4-methyl-phenyl)-1-(2,2-difluoro-ethyl)-2,2-dioxo-1,2-dihydro-2-λ-6-thia-1,5,8-triaza-naphthalen-4-yl ester]	3	0	7	2	8
CC(C)(C)C(=O)OC1=C(c2cc(F)c(Cl)cc2Cl)S(=O)(=O)N(CC(F)F)c2nccnc21 [Compound C47]	10	4	7	7	10
CCN1c2nccnc2C(OC(=O)C(C)C)=C(c2cccc(C(F)(F)F)c2Cl)S1(=O)=O [Compound C75]	5	1	2	0	6
C=CCN1c2nccnc2C(OC(=O)C(C)(C)C)=C(c2cc(Cl)ccc2C(F)(F)F)S1(=O)=O [Compound C118]	6	5	4	4	8
CC(C)C(=O)OC1=C(c2ccccc2OC(F)(F)F)S(=O)(=O)N(CC(F)F)c2nccnc21 [Compound C22]	10	7	9	4	10
CCSC(=O)OC1=C(c2c(C(F)(F)F)ccc(Cl)c2Cl)S(=O)(=O)N(CC(F)F)c2nccnc21 [Compound C135]	8	7	8	10	10
CCN1c2nccnc2C(O)=C(c2ccc(Cl)cc2C(F)(F)F)S1(=O)=O [Compound D10]	9	4	9	2	10
